Patent publication US20180000744A1, “NANOENCAPSULATED COMPOSITIONS” (Georgia Southern Research and Service Foundation, Inc., priority 2016, published 2018)

System: Human prostatic cancer cell PC3
Test: In vitro cytotoxicity / biocompatibility test, MTS assay
Type: cell-based
Details: 5 μM initial drug concentration in the media, 48 hours
Experimental: Human prostatic cancer cell PC3 were used to test the biocompatibility and cytotoxicity of FU loaded PCL nanofibers. Human prostatic cancer cell derived from metastatic site (bone) was purchased from ATCC, USA. 57 ml of fetal bovine serum (USA origin purchased from Sigma Aldrich), 7 ml of Penicillin-Streptomycin (Life Technologies) and 6 ml of HEPES (Life Technologies) was added to 500 ml RPMI-1640 medium (Fisher Scientific). This media is called R+ media. 96 well plate were used to grow PC3 cells (sterile and flat bottom type purchased from fisher scientific). 100 μL of PC3 cells at 8×10^4 cells/ml were added on each wells of 96 well plate for all tests. PC3 cells were incubated at 37° C. in a humidified 5% CO2 atmosphere for 24 hours before performing any test. […]
The cytotoxicity of NFs set A and D was assessed. […]
96 well plates were incubated at 37° C. in a humidified, 5% CO2 atmosphere for 48 hours to give sufficient time for the fluorouracil to inhibit essential biosynthetic process of the PC3 cells and thus cause cell death. […] Well plates were kept again in CO2 incubator for 3 hours and then their absorbance were measured at 490 nm using UV-Vis spectrometer. Absorbance of cells with different concentration of drug was compared with the absorbance of PC3 cells with no drug to determine the cell viability. […]

O=c1[nH]cc(F)c(=O)[nH]1 [pristine FU, 5-Fluorouracil]
alive cells: 43%
